Test results from publication PMC9152706, “Identification of the target and mode of action for the prokaryotic nucleotide excision repair inhibitor ATBC” (Bioscience Reports, 2022).

Molecular target: T1, UvrA (Escherichia coli, UniProt P0A698)
T1 construct: full-length, C-terminal flexible linker, AviTag, TEV site and His tag; Ni-NTA purified from E. coli (BL21 delta-uvrA delta-uvrB used for expression); unlabelled; homodimer
T1 sequence (P0A698 1-940): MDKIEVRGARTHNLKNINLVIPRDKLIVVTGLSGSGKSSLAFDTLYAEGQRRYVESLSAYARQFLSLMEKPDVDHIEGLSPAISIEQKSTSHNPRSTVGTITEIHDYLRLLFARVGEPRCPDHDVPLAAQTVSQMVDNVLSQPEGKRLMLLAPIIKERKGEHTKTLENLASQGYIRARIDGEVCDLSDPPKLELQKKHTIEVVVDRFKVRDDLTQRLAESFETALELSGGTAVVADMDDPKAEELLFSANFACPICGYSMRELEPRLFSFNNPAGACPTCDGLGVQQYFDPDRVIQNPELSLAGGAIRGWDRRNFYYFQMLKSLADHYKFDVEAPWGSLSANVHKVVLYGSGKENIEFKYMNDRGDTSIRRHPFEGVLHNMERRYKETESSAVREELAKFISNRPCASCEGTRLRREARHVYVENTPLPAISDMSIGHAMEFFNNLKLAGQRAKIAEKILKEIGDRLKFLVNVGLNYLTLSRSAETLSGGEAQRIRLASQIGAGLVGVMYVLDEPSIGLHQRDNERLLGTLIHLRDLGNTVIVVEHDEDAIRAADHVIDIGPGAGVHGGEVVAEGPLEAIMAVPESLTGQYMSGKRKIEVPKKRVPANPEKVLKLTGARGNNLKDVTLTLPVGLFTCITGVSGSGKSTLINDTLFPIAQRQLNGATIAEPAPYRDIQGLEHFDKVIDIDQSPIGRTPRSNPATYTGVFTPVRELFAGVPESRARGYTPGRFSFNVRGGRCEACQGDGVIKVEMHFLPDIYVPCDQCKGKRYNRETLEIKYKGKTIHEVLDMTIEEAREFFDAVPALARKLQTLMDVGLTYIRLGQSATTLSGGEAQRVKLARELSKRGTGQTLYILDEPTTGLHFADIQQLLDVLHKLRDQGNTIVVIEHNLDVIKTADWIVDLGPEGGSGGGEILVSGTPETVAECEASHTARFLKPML
Experiment: NADH-linked ATPase assay (pyruvate kinase / lactate dehydrogenase)
Assay type: biochemical
Details: 50 µM ATBC, 5 min preincubation; 1 mM ATP; 50 mM Tris-HCl pH 7.5, 50 mM KCl, 10 mM MgCl2; room temperature; poorly soluble, nominal concentration; ATPase site proposed from docking

SMILES: Nc1nnc(-c2cc3c(ccc4ccccc43)oc2=O)s1 [ATBC, 2-(5-amino-1,3,4-thiadiazol-2-yl)benzo(f)chromen-3-one]
- % reduction of kcat at 50 μM: ~ 70%
